From US5874583A, “2,3-dihydro-1H-isoindole derivatives” (Hoechst Marion Roussel Inc., priority 1997, dated 1999)
Counter-ions that a name gives are not always drawn.

System: serotonin (5-hydroxytryptamine (5HT)) uptake
Test: [3H]-Serotonin uptake in rat whole brain and hypothalamic synaptosomes
Assay type: biochemical
Conditions: [3H]-5HT 50 nM, 37° C., 5 minutes
Method: [^3 H]-Serotonin Uptake in Rat Whole Brain and Hypothalamic Synaptosomes
This activity is determined in an assay which measures [^3 H]-serotoninuptake in rat whole brain and hypothalamic synaptosomes. The assay described below is used as a biochemical screen for potential antidepressants which block serotonin (5-hydroxytryptamine (5HT)) uptake.
Male CR Wistar rats (100-125 g)
1. Krebs-Henseleit Bicarbonate Buffer, pH 7.4 (KHBB):
The batch is aerated for 60 minutes with 95% 02 /5% CO2, the pH is checked to insure it is at 7.4±0.1, then add bovine serum albumin (Sigma cat# A-7906) 1 mg/ml.
3. Sucrose solution: 0.32M sucrose containing 5 mM HEPES and 0.1 mM EDTA; pH to 7.3 using Tris base.
4. A 0.1 mM stock solution of serotonin creatinine SO4 is made up in 0.01N HCl. This is used to dilute the specific activity of the radiolabeled 5HT.
The final desired concentration of [^3 H]-5HT in the assay is 50 nM. The dilution factor is 0.8. The KHBB is made up to contain 62.5 nM of [^3 H]-5HT.
6. For most assays, a 0.5 mM stock solution of the test compound is made up initially in either 10 μl of glacial acetic acid, 100 μl DMSO or 10 μl of the recrystallization solvent, to which is added approximately 10 ml of distilled water. Compounds are initially screened in duplicate at 3 concentrations (10^-8, 10^-7 and 10^-6 M) made up in water.
The Percoll method for preparing synaptosomes has been modified from Nagy, A., Delgado-Escueta, A. V. J. Neurochem. 43, 1114 (1984) and Dunkley, P. R., Jarvie, R. E., Heath, J. W., Kidd, G. J., Rostas, J. A. P. Brain Research 372, 115 (1986). Male Wistar rats are decapitated and the brain rapidly removed. Whole brain (minus cerebellum) is weighed and homogenized in 15 volumes of ice cold Sucrose solution using a Potter-Elvejhem homogenizer. The following procedures are performed on ice. Homogenization should be done with 4-5 up and down strokes at medium speeds (setting 4.5 to 5) to minimize synaptosome lysis. The homogenate is centrifuged at 1000 g (3000 rpm, Sorvall SS-34 rotor) for 10 minutes at 0°-4° C.
The Percoll gradient tubes are carefully placed into a Beckman SW-28 swinging bucket rotor and spun in a Beckman XL90 ultracentrifuge using the following program: speed, 11,000 rpm (15,000 g) for 30 minutes at 4° C.; slow acceleration and deceleration (acceleration setting 9; deceleration setting 3). Tubes are carefully removed, and the top layer and the top part of the middle (red) layer are discarded using a pasteur pipette. The synaptosomes are located in the white fluffy band at the interface between the 10% and 21% Percoll layers. This is carefully removed, placed in a centrifuge tube, diluted with KHBB and spun at 21,000 g (13,000 rpm, Sorvall SS-34 rotor). The pellet (synaptosomes) is resuspended in KHBB (10 vol per gram original brain wet weight; 1 brain minus cerebellum weighs approximately 1.2 g; 2.5 brains are needed per typical assay).
200 μl of the tissue suspension are added to each of 24 tubes (at a time) containing the 20 μl of vehicle or drug on ice. Three minutes later, 800 μl of KHBB containing [^3 H]-5HT are added, and the tubes are vortexed. The rack containing the 24 tubes is moved from the ice bath to a water bath set at 37° C. The tubes are incubated for 5 minutes under 95% O2 /5% CO2.

With `CCC1c2ccccc2CN1c1ccncc1` (centres unmarked) [2,3-Dihydro-1-Ethyl-2-(4-Pyridyl)-1H-Isoindole Maleate] the IC50 was 1140 nM.
With `CC1c2ccccc2CN1c1ccncc1` (centres unmarked) [2,3-Dihydro-1-Methyl-2-(4-Pyridyl)-1H-Isoindole Fumarate] the IC50 was 736 nM.
`CCCC1c2ccccc2CN1c1ccncc1` (centres unmarked) [2,3-Dihydro-1-Propyl-2-(4-Pyridyl)-1H-Isoindole Maleate] gave an IC50 of 725 nM.
`c1ccc2c(c1)CN(c1ccncc1)C2` [2,3-Dihydro-2-(4-Pyridyl)-1H-Isoindole Maleate] showed an IC50 of 880 nM.
`CC(C)CC1c2ccccc2CN1c1ccncc1` (centres unmarked) [2,3-dihydro-1-(2-methylpropyl)-2-(4-pyridyl)-1H-isoindole maleate] was tested, and the IC50 was 849 nM.
